{
  "source": "patent US8026410B2",
  "about": "(priority 2003, dated 2011)",
  "molecules": {"B1": {"name": "PAP: 29-kDa ribosome inactivating protein (protein)", "chain": "VNTIIYNVGSTTISKYATFLNDLRNEAKDPSLKCYGIPMLPNTNTNPKYVLVELQGSNKKTITLMLRRNNLYVMGYSDPFETNKCRYHIFNDISGTERQDVETTLCPNANSRVSKNINFDSRYPTLESKAGVKSRSQVQLGIQILDSNIGKISGVMSFTEKTEAEFLLVAIQMVSEAARFKYIENQVKTNFNRAFNPNPKVLNLQETWGKISTAIHDAKNGVLPKPLELVDASGAKWIVLRVDEIKPDVALLNYVGGSCQTTY"}},
  "key": {"[1]": {"test_system": "Tobacco seeds germinated on MS medium containing DON", "parameters": "species or system Nicotiana tabacum", "conditions": "in vivo"}, "wheat": {"test_system": "wheat", "conditions": "in vivo; cited from earlier work"}, "[2]": {"test_system": "Tobacco seeds germinated on MS medium containing DAS", "parameters": "species or system Nicotiana tabacum", "conditions": "in vivo"}, "[3]": {"test_system": "Phytophthora infestans, Colletotrichum coccodes, fusarium solani, fusarium sulphureum, Phoma foreata and Rhizoctonia solani", "conditions": "cited from earlier work"}, "[4]": {"test_system": "transgenic tobacco plants", "conditions": "in vivo; cited from earlier work"}},
  "data": [
    {"molecule": "CC1=C[C@H]2O[C@@H]3[C@H](O)C[C@](C)([C@@]2(CO)[C@H](O)C1=O)[C@]31CO1", "note": "[DON, Deoxynivalenol]", "values": [
      {"measurement": "lowest concentration that would give the best inhibition of wild type tobacco seed growth", "setting": "[1]", "value": 10, "unit": "µM"},
      {"measurement": "inhibition toward wheat", "setting": "wheat", "value": "far more inhibitory than DAS"}
    ]},
    {"molecule": "4,15-diacetoxyscirpenol [DAS]", "values": [
      {"measurement": "lowest concentration that would give the best inhibition of wild type tobacco seed growth", "setting": "[2]", "value": 1, "unit": "µM"}
    ]},
    {"molecule": "B1", "values": [
      {"measurement": "effect on growth of fungi in vitro", "setting": "[3]", "value": "no effect on the growth"},
      {"measurement": "phenotype of PAP-expressing tobacco plants", "setting": "[4]", "value": "stunted, mottled phenotype"}
    ]}
  ]
}
